target: human NLRP3 (Homo sapiens, UniProt Q96P20); experiment: Scintillation Proximity (SPA) NLRP3 Assay, displacement of 3H-MCC950; assay type: binding; conditions: Table B, activity class; displacement of 3H-MCC950 from human NLRP3
Description: Improved NLRP3 binding correlates with increased affinity for NLRP3 protein and, by extension, increased ability to interfere with its function.
SPA experiments were conducted in a total volume of 20 μL assay buffer containing 20 mM HEPES pH 7.5, 150 mM NaCl, 5 mM MgCl2, 0.01% (v/v) Tween-20, 0.01% (w/v) bovine serum albumin (BSA) and 100 μM of adenosine diphosphate (ADP). A human NLRP3 protein (350 nM) (see, e.g., Sharif et al., Nature (2019) 570:338-343; Hochheiser et al., Nature (2022) 604:184-189; Adreeva et al., Cell (2021) 184:6299-6312; Wang et al., J Exp. Med. (2021) 219:e20211147) was incubated with various concentration of compounds in 5% dimethyl sulfoxide (DMSO) final for 15 minutes at room temperature in a white half-area 96 well OptiPlate (PerkinElmer #6002290) before adding 125 nM final of 3H-MCC950. After the addition of radiolabeled MCC950, the plate was incubated for 60 minutes at room temperature before adding 0.25 mg/ml of copper-coated polyvinyltoluene SPA beads (PerkinElmer #RPNQ0095). The plate was then transferred to a microplate counter (PerkinElmer 2450 Microbeta) to collect binding data. Binding data was analyzed 6 hrs post-PVT bead addition to allow sufficient time to reach equilibrium. Specific binding was calculated from averaged duplicates by subtracting signal from wells without NLRP3 protein.
SPA NLRP3 IC50 assay results are provided in Table B. “A” activity=<1 uM; “B” activity=1-10 uM; “C” activity=>10-50 uM; “D” activity=>50 uM-100 uM; and “E” activity=>100 uM.

Sequence of human NLRP3 (Q96P20 whole entry): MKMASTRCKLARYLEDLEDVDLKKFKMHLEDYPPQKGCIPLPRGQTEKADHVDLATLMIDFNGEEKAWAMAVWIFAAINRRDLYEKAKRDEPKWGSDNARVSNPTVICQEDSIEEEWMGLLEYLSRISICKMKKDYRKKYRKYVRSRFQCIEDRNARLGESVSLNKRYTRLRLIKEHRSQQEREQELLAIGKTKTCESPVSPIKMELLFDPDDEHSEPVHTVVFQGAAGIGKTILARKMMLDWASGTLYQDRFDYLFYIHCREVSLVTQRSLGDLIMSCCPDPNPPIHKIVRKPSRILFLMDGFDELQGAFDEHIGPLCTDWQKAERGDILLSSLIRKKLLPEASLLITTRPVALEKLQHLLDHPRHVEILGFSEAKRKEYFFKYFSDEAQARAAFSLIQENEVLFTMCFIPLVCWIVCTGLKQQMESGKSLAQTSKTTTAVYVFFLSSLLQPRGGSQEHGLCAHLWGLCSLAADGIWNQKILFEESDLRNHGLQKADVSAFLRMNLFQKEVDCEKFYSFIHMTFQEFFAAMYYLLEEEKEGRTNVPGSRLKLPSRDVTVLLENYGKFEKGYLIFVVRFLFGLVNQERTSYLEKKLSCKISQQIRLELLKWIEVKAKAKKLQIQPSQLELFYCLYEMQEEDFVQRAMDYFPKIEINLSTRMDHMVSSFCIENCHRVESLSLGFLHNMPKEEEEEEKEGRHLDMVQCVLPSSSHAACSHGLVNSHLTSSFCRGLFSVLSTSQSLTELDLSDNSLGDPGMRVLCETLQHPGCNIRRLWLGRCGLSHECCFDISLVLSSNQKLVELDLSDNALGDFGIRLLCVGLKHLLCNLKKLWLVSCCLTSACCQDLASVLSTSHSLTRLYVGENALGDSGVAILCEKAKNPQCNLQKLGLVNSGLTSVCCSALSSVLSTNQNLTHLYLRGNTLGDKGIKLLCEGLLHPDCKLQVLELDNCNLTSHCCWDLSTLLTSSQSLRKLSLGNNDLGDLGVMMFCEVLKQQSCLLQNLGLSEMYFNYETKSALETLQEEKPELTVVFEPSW

First: C[C@H]1C[C@H](NC(=O)N(C)c2ccc(OC(F)F)c(OC(F)F)c2)[C@@H]2CC[C@H]1N2c1nnn[nH]1 (single isomer, unassigned) [64D*]
Second: C[C@@H]1C[C@H](NC(=O)N(C)c2ccc(OC(F)F)c(OC(F)F)c2)[C@H]2CC[C@@H]1N2c1nnn[nH]1 (single isomer, unassigned) [64B*]
The IC50 of the first is lower: 1 to 10 µM for the first, over 100 µM for the second. The first is the more potent here.

`C[C@@H]1CCN(c2nnn[nH]2)C[C@@H](NC(=O)N(C)c2cnc(C(F)(F)F)cn2)C1` (single isomer, unassigned) [32B*] and `C[C@H]1CCN(c2nnn[nH]2)C[C@@H](NC(=O)N(C)c2cnc(C(F)(F)F)cn2)C1` (single isomer, unassigned) [32D*] fall in the same range of IC50: 50 to 100 µM for the first, 50 to 100 µM for the second.

First: CCN(C(=O)N[C@H]1C[C@H](C)[C@H]2CC[C@@H]1N2c1nnn[nH]1)c1ccc(OC(F)F)cc1F (single isomer, unassigned) [65D*]
Second: C[C@@H]1C[C@H](NC(=O)N(C)c2ccc(OC(F)F)cc2F)[C@H]2CC[C@@H]1N2c1nnn[nH]1 (single isomer, unassigned) [57B*]
The IC50 of the first is lower: 10 to 50 µM for the first, over 100 µM for the second. The first is the more potent here.

First: C[C@H]1CCN(c2nnn[nH]2)C[C@@H](NC(=O)N(C)c2c(F)cc(OC(F)(F)F)cc2F)C1 (single isomer, unassigned) [41D*]
Second: C[C@H]1CCN(c2nnn[nH]2)C[C@H](NC(=O)N(C)c2ccc(OC(F)(F)F)cc2F)C1 (single isomer, unassigned) [24C*]
The IC50 of the first is lower: 1 to 10 µM for the first, 10 to 50 µM for the second.

First: C[C@@H]1C[C@H](NC(=O)N(C)c2ccc(C(F)F)c(F)c2)[C@H]2CC[C@@H]1N2c1nnn[nH]1 (single isomer, unassigned) [53B*]
Second: C[C@@H]1C[C@@H](NC(=O)N(C)c2ccc(C(F)F)c(F)c2)[C@H]2CC[C@@H]1N2c1nnn[nH]1 (single isomer, unassigned) [53A*]
The IC50 of the first is higher: over 100 µM for the first, 1 to 10 µM for the second.

Compared with `C[C@H]1CCN(c2nnn[nH]2)C[C@H](NC(=O)N(C)c2ccc(OC(F)(F)F)cc2)C1` (single isomer, unassigned) [10C*], `CCN(C(=O)N[C@H]1C[C@@H](C)CCN(c2nnn[nH]2)C1)c1ccc(OC(F)(F)F)cc1` (single isomer, unassigned) [43D*] is lower in IC50: over 100 µM for the first, 1 to 10 µM for the second. The second is the more potent here.

First: C[C@H]1C[C@@H](NC(=O)N(C)c2ccc(C(F)F)cc2F)[C@@H]2CC[C@H]1N2c1nnn[nH]1 (single isomer, unassigned) [55C*]
Second: C[C@@H]1C[C@H](NC(=O)N(C)c2ccc(C(F)F)cc2F)[C@H]2CC[C@@H]1N2c1nnn[nH]1 (single isomer, unassigned) [55B*]
The IC50 of the first is lower: 50 to 100 µM for the first, over 100 µM for the second. The first is the more potent here.

Compared with `C[C@H]1CCN(c2nnn[nH]2)C[C@H](NC(=O)N(C)c2ccc(OC(F)F)c(F)c2F)C1` (single isomer, unassigned) [40C*], `C[C@H]1CCN(c2nnn[nH]2)C[C@H](NC(=O)N(C)c2ccc(OC(F)F)c(F)c2)C1` (single isomer, unassigned) [15C*] is higher in IC50: 10 to 50 µM for the first, over 100 µM for the second. The first is the more potent here.

First: C[C@H]1C[C@H](NC(=O)N(C)c2c(F)cc(C3CC3)cc2F)[C@@H]2CC[C@H]1N2c1nnn[nH]1 (single isomer, unassigned) [60D*]
Second: C[C@@H]1C[C@H](NC(=O)N(C)c2c(F)cc(C3CC3)cc2F)[C@H]2CC[C@@H]1N2c1nnn[nH]1 (single isomer, unassigned) [60B*]
The IC50 of the first is lower: 1 to 10 µM for the first, over 100 µM for the second.

First: C[C@@H]1C[C@@H](NC(=O)N(C)c2ccc(Cl)c(F)c2)[C@H]2CC[C@@H]1N2c1nnn[nH]1 (single isomer, unassigned) [50A*]
Second: C[C@@H]1C[C@H](NC(=O)N(C)c2ccc(C3CC3)c(F)c2)[C@H]2CC[C@@H]1N2c1nnn[nH]1 (single isomer, unassigned) [54B*]
The IC50 of the first is lower: 1 to 10 µM for the first, over 100 µM for the second. The first is the more potent here.

Compared with `C[C@H]1CCN(c2nnn[nH]2)C[C@H](NC(=O)N(C)c2ccc(OC(F)F)c(OC(F)F)c2)C1` (single isomer, unassigned) [16C*], `C[C@H]1CCN(c2nnn[nH]2)C[C@@H](NC(=O)N(C)c2ccc(OC(F)(F)F)c(OC(F)F)c2)C1` (single isomer, unassigned) [25D*] is lower in IC50: 50 to 100 µM for the first, 10 to 50 µM for the second. The second is the more potent here.

`C[C@H]1CCN(c2nnn[nH]2)C[C@H](NC(=O)Nc2ccc(Cl)cc2F)C1` (single isomer, unassigned) [27C*] and `C[C@H]1CCN(c2nnn[nH]2)C[C@H](NC(=O)N(C)c2ccc(Cl)c(F)c2)C1` (single isomer, unassigned) [12C*] fall in the same range of IC50: 10 to 50 µM for the first, 10 to 50 µM for the second.

First: C[C@H]1C[C@@H](NC(=O)N(C)c2ccc(OC(F)F)c(F)c2F)[C@@H]2CC[C@H]1N2c1nnn[nH]1 (single isomer, unassigned) [58C*]
Second: C[C@H]1C[C@@H](NC(=O)N(C)c2ccc(OC(F)(F)F)c(F)c2F)[C@@H]2CC[C@H]1N2c1nnn[nH]1 (single isomer, unassigned) [59C*]
The IC50 of the first is lower: 50 to 100 µM for the first, over 100 µM for the second. The first is the more potent here.

Compared with `O=C(N[C@@H]1CCCN(c2nnn[nH]2)C1)N(c1ccc(Cl)cc1)C1CC1` [Compound 3A, (R)-3-(1-(1H-tetrazol-5-yl)piperidin-3-yl)-1-(4-chlorophenyl)-1-cyclopropylurea], `C[C@H]1CCN(c2nnn[nH]2)C[C@@H](NC(=O)N(C)c2ccc(C3CC3)cc2)C1` (single isomer, unassigned) [8D*] is lower in IC50: over 100 µM for the first, 1 to 10 µM for the second.

First: C[C@H]1CCN(c2nnn[nH]2)C[C@@H](NC(=O)N(C)c2ccc(Cl)nc2)C1 (single isomer, unassigned) [29D*]
Second: C[C@@H]1CCN(c2nnn[nH]2)C[C@H](NC(=O)N(C)c2ccc(Cl)nc2)C1 (single isomer, unassigned) [29A*]
The IC50 of the first is higher: 10 to 50 µM for the first, 1 to 10 µM for the second.

First: C[C@@H]1C[C@H](NC(=O)N(C)c2ccc(C(F)(F)F)c(F)c2)[C@H]2CC[C@@H]1N2c1nnn[nH]1 (single isomer, unassigned) [49B*]
Second: C[C@H]1C[C@H](NC(=O)N(C)c2ccc(OC(F)F)c(F)c2)[C@@H]2CC[C@H]1N2c1nnn[nH]1 (single isomer, unassigned) [52D*]
The IC50 of the first is higher: over 100 µM for the first, 10 to 50 µM for the second.

`C[C@H]1C[C@@H](NC(=O)N(C)c2ccc(OC(F)(F)F)cc2F)[C@@H]2CC[C@H]1N2c1nnn[nH]1` (single isomer, unassigned) [56C*] and `C[C@H]1C[C@@H](NC(=O)N(C)c2c(F)cc(OC(F)(F)F)cc2F)[C@@H]2CC[C@H]1N2c1nnn[nH]1` (single isomer, unassigned) [62C*] fall in the same range of IC50: 50 to 100 µM for the first, 50 to 100 µM for the second.

First: C[C@H]1CCN(c2nnn[nH]2)C[C@H](NC(=O)N(C)c2ccc(Cl)cn2)C1 (single isomer, unassigned) [28C*]
Second: C[C@H]1CCN(c2nnn[nH]2)C[C@@H](NC(=O)N(C)c2ccc(Cl)cn2)C1 (single isomer, unassigned) [28D*]
The IC50 of the first is higher: 50 to 100 µM for the first, 10 to 50 µM for the second. The second is the more potent here.

`C[C@H]1C[C@@H](NC(=O)N(C)c2ccc(C3CC3)cc2)[C@@H]2CC[C@H]1N2c1nnn[nH]1` (single isomer, unassigned) [46C*] and `C[C@@H]1C[C@H](NC(=O)N(C)c2ccc(OC(F)F)cc2)[C@H]2CC[C@@H]1N2c1nnn[nH]1` (single isomer, unassigned) [42B*] fall in the same range of IC50: 10 to 50 µM for the first, 10 to 50 µM for the second.

`C[C@@H]1CCN(c2nnn[nH]2)C[C@@H](NC(=O)N(C)c2ccc(Cl)cc2Cl)C1` (single isomer, unassigned) [7B*] and `C[C@@H]1CCN(c2nnn[nH]2)C[C@@H](NC(=O)N(C)c2ccc(Cl)nc2)C1` (single isomer, unassigned) [29B*] fall in the same range of IC50: 1 to 10 µM for the first, 1 to 10 µM for the second.

Compared with `C[C@H]1C[C@H](NC(=O)N(C)c2ccc(OC(F)(F)F)cc2)[C@@H]2CC[C@H]1N2c1nnn[nH]1` (single isomer, unassigned) [45D*], `C[C@@H]1C[C@H](NC(=O)N(C)c2ccc(OC(F)(F)F)c(OC(F)F)c2)[C@H]2CC[C@@H]1N2c1nnn[nH]1` (single isomer, unassigned) [63B*] is higher in IC50: 1 to 10 µM for the first, over 100 µM for the second.

`C[C@H]1CCN(c2nnn[nH]2)C[C@@H](NC(=O)N(C)c2c(F)cc(C3CC3)cc2F)C1` (single isomer, unassigned) [20D*] and `C[C@@H]1CCN(c2nnn[nH]2)C[C@@H](NC(=O)N(C)c2c(F)cc(C3CC3)cc2F)C1` (single isomer, unassigned) [20B*] fall in the same range of IC50: 1 to 10 µM for the first, 1 to 10 µM for the second.

First: C[C@H]1CCN(c2nnn[nH]2)C[C@H](NC(=O)N(C)c2ccc(C(F)(F)F)nn2)C1 (single isomer, unassigned) [33C*]
Second: C[C@H]1CCN(c2nnn[nH]2)C[C@@H](NC(=O)N(C)c2ccc(C(F)(F)F)c(F)c2F)C1 (single isomer, unassigned) [21D*]
The IC50 of the first is higher: 50 to 100 µM for the first, 1 to 10 µM for the second.

First: C[C@H]1CCN(c2nnn[nH]2)C[C@H](NC(=O)N(C)c2ccc(C3CC3)c(F)c2)C1 (single isomer, unassigned) [23C*]
Second: C[C@@H]1CCN(c2nnn[nH]2)C[C@@H](NC(=O)N(C)c2ccc(C3CC3)cc2)C1 (single isomer, unassigned) [8B*]
The IC50 of the first is higher: 10 to 50 µM for the first, 1 to 10 µM for the second. The second is the more potent here.

`C[C@H]1CCN(c2nnn[nH]2)C[C@H](NC(=O)N(C)c2ccc(OC(F)F)cc2F)C1` (single isomer, unassigned) [17C*] and `C[C@H]1CCN(c2nnn[nH]2)C[C@@H](NC(=O)N(C)c2ccc(OC(F)(F)F)cc2F)C1` (single isomer, unassigned) [24D*] fall in the same range of IC50: 1 to 10 µM for the first, 1 to 10 µM for the second.

For `C[C@H]1C[C@H](NC(=O)N(C)c2c(F)cc(OC(F)F)cc2F)[C@@H]2CC[C@H]1N2c1nnn[nH]1` (single isomer, unassigned) [61D*], the IC50 was 10 to 50 µM.

— US20260008768A1, “UREA DERIVATIVES FOR INHIBITING NLRP3 AND USES THEREOF” (VENTUS THERAPEUTICS U.S., INC., priority 2023, published 2026)
